Tested on: Stress protein genes
Assay: DNA chip mRNA expression in yeast, stress protein genes (Table 6)
Format: cell-based, Saccharomyces cerevisiae S288C
Method: Yeast (Saccharomyces cerevisiae S288C (α SUC2mal mel gap2 CUP1)) were incubated at 25° C. on YPD medium (yeast extract 1%, polypepton 2%, glucose 2%). One of toxic chemical substances was added to the cells at logarithmic growth phase, and the cells were further incubated for two hours. Cells were cultured without any chemical substance in the same condition, and were used as control. Concentrations of the chemical substances were defined to inhibit the growth of the yeast but not lead to death.
After completion of the incubation, the culture was centrifuged to collect the cells. To the cells, sodium acetate buffer (50 mM sodium acetate, 10 mM EDTA, 1% SDS) was added, and the mixture was shaken at 65° C. for five minutes, followed by returning to room temperature, and obtaining the supernatant, of which the procedures were repeated two times. To the supernatant, ½ amount of a solution of phenol/chloroform was added, and the mixture was centrifuged to give a supernatant, which was added with an equal amount of chloroform, and the mixture was centrifuged to give a supernatant. To the supernatant, an equal amount of isopropanol containing 0.3 M sodium acetate was added, and the mixture was allowed to stand at room temperature for 30 minutes, after which the mixture was centrifuged to give a sediment of the whole RNAs. Seventy % ethanol was added to the sediment, and the mixture was again centrifuged to give a sediment, which was then dried and dissolved in water. mRNA was isolated from the whole RNAs as followings. In view of the fact that a poly A chain is attached to the 3′ terminus of mRNA, a polynucleotide having a poly T structure which was immobilized on the surface of latex beads was used to trap the mRNA, and then the mRNA was washed and eluted with spine column (Oligotex-dT30<Super>mRNA Purification Kit, Takara). Reverse transcription of the mRNA was conducted with a reverse transcriptase (Super Script II Reverse Transcriptase; catalogue No. 18064-014, GibcoBRL) using fluorescence-labeled nucleotides to give cDNAs that were introduced with Cy3-dUTP or Cy5-dUTP during the reverse transcription.
The labeled cDNAs were dissolved in TE buffer (10mM Tris-HCl/1 mM EDTA, pH8.0), and the solution was dropped on the DNA chip containing the whole genes of yeast (DNA Chip Research Inc. Japan) so that the cDNAs were hybridized on the DNA chip at 65° C. for over 12 hours. The fluoresces intensity of the DNA chip was read with a scanner, and the ratio relative to the fluorescence intensity resulting from the absence of chemical substance was estimated as the following, which is shown in Tables 1 to 9: […]

Measured: The level of expressed mRNA in the presence of chemical substance/The level of expressed mRNA in the absence of chemical substance

Cl[C@H]1[C@H](Cl)[C@@H](Cl)[C@@H](Cl)[C@H](Cl)[C@H]1Cl [(7), γ-hexachlorocyclohexane]
2.9: yeast gene YLL026W
1.3: yeast gene YBL075C | yeast gene YBL093C | yeast gene YGL073W | yeast gene YGL181W | yeast gene YHL046C | yeast gene YHR057C | yeast gene YOR027W | yeast gene YPR026W
0.4: yeast gene YJL158C | yeast gene YOR010C
1.4: yeast gene YER057C | yeast gene YFL016C | yeast gene YFL020C | yeast gene YGL115W | yeast gene YPL140C | yeast gene YPL240C
3.1: yeast gene YML070W
2.7: yeast gene YCL035C
1.9: yeast gene YDR519W
0.8: yeast gene YDR033W | yeast gene YER125W | yeast gene YGR088W | yeast gene YJL165C | yeast gene YJR090C | yeast gene YKL164C | yeast gene YOR008C
2.4: yeast gene YCR060W | yeast gene YMR173W | yeast gene YNL160W
1.6: yeast gene YDR513W
1.2: yeast gene YAL005C | yeast gene YAL015C | yeast gene YDR155C | yeast gene YDR436W | yeast gene YMR186W | yeast gene YNR076W | yeast gene YOL064C | yeast gene YPR005C
0.7: yeast gene YDR077W | yeast gene YPL059W
2.1: yeast gene YHL028W
2.3: yeast gene YBR126C
1.8: yeast gene YCR083W | yeast gene YHR030C | yeast gene YIR037W | yeast gene YJL128C | yeast gene YLR259C
6.6: yeast gene YBR072W
2.2: yeast gene YFR052W
1.1: yeast gene YBR067C | yeast gene YER042W | yeast gene YIL033C | yeast gene YLL024C | yeast gene YLL039C | yeast gene YLR006C | yeast gene YML007W | yeast gene YOR208W | yeast gene YPL106C | yeast gene YPL223C
3.9: yeast gene YDR258C
2.0: yeast gene YIR038C | yeast gene YKL161C | yeast gene YLL060C
1.0: yeast gene YDL025C | yeast gene YER103W | yeast gene YJR045C | yeast gene YKL210W
2.6: yeast gene YLR109W
1.7: yeast gene YKR053C
0.9: yeast gene YCR021C | yeast gene YDR293C | yeast gene YEL030W | yeast gene YJL159W | yeast gene YKL163W | yeast gene YOL161C
1.5: yeast gene YBR044C | yeast gene YDL022W | yeast gene YDR098C | yeast gene YHR104W | yeast gene YPL194W
5.5: yeast gene YFL014W
0.6: yeast gene YBR054W | yeast gene YEL039C | yeast gene YIL011W | yeast gene YNL064C | yeast gene YOR009W
2.5: yeast gene YBR169C | yeast gene YMR021C
3.2: yeast gene YNL241C

Source: patent US8192962B2, “Processes for detecting toxic substances” (Daikin Industries, Ltd., priority 2001, dated 2012)
